A short description of data set [1]: Nicotine-lethality inhibiting effect in mice, oral (method of Stone). In kind it is in vivo. The conditions noted are these: mouse, in vivo, LD50 and ED50 in mice, read-out: Therapeutic index. As to the method:
(§1) The nicotine-lethality inhibiting effect was determined on mice by the method of Stone [C. A. Stone et al.: Arch. Intern.

The test system of data set [2] is nicotine-lethality. The data set is described as above. In kind it is in vivo. The conditions noted are these: Mus musculus, nicotine-lethality inhibition, mice, groups of ten animals. On the procedure:
as §1

A short description of data set [3]: in vivo. The conditions noted are these: mouse, mice, oral.
Data set [4] has as its system isolated rat ileum. Kind of data set: Spasmolytic effect on smooth muscle, isolated rat ileum (method of Brock), papaverine as reference. The conditions noted are these: relative to papaverine. As to the method:
The spasmolytic effect on smooth muscle was determined on isolated rat ileum according to the method of Brock et al. [H. Brock, J. Ceks, D. Lorenz: Arch. Exper. Path. u. Pharmacol. 215, 492/1952/] by using papaverine as the reference substance. In order to characterize the efficiency of the individual compounds their relative effect with respect to papaverine are enumerated in Table 2 below.

Data set [5] deals with ischiadic nerve (N. ischiadieus). Kind of data set: Local anaesthetizing effect on the ischiadic nerve of rats (method of Truant), Lidocaine as reference. In kind it is in vivo. The conditions noted are these: for Relative efficiency: local anaesthesia, relative to Lidocaine. On the procedure: The local anaesthetizing effect was investigated on the ischiadic nerve (N. ischiadieus) of rats by the method of Truant [A. P. Truant, d'Amato cited in A. P. Truant, S. Wiedling: Acta Chirurg. Scand. 116, 351 (1958)], by using Lidocaine as the reference substance. The number of animals showing the characteristic motoric paralysis and the duration of the effect were recorded. The relative efficiency with respect to Lidocaine and the duration of the effect observed on applying a 0.25% and 0.5% concentration are presented in Table 3.

Molecules are shown by their SMILES.

For `CC(CON=C1CCCCCCCCCCC1)CN(C)C` (racemic) [Example 4, D,L-1-(3'-Dimethylamino-2'-methylpropoxyimino)cyclododecane], the selectivity ratio in data set [1] stood at 14.8. The same compound showed an ED50 in data set [2] of 46 mg/kg. The compound also came in with an LD50 in data set [3] of 680 mg/kg. The results for the Relative efficiency in data set [4] and in data set [5] were 4.1 and 0.63, respectively. In addition, the Duration of effect in data set [5] (0.25% concentration) worked out at 32 min; in data set [5] (0.5% concentration), 105 min.
In the case of `OC(CCN1CCCCC1)(c1ccccc1)C1CCCCC1` (stereo not shown) [Artane, 1-cyclohexyl-1-phenyl-3-piperidino-propane-1-ol, reference compound], the ED50 in data set [2] was 40 mg/kg.
Take `CN(C)CCCON=C1CCCCCCCCCCC1` [Example 1, 1-(Dimethylamino-propoxyimino)cyclododecane]: the selectivity ratio in data set [1] was found to be 14.4. The median effective dose (ED50) in data set [2] was found to be 39 mg/kg. In data set [3], the LD50 was 560 mg/kg. Moreover, the figures for the Relative efficiency in data set [4] and in data set [5] were 1.4 and 0.77, respectively. Further, the Duration of effect in data set [5] (0.25% concentration) is 45 min; in data set [5] (0.5% concentration), 95 min.
Take `CN(C)CCON=C1CCCCCCCCCCC1` [Example 2, 1-(Dimethylamino-ethoxyimino)cyclododecane]: the selectivity ratio in data set [1] was found to be 27.9. Further, the ED50 in data set [2] turned out to be 28 mg/kg. The LD50 in data set [3] is 780 mg/kg. The Duration of effect in data set [5] (0.25% concentration) is 23 min; in data set [5] (0.5% concentration), 57 min. In data set [5], the Relative efficiency came out at 0.67.
As to `CC(C)N(CCON=C1CCCCCCCCCCC1)C(C)C` [Example 5, 1-(Diisopropylamino-ethoxyimino)cyclododecane], the selectivity ratio in data set [1] amounted to 80. In data set [2], the ED50 came out at 10 mg/kg. In data set [3], this compound registered an LD50 of 800 mg/kg. The Duration of effect was found to be 31 min in data set [5] (0.25% concentration) and 60 min in data set [5] (0.5% concentration). In addition, the Relative efficiency in data set [5] was determined as 0.71.
As for `c1ccc(CN2CCN(CCCON=C3CCCCCCCCCCC3)CC2)cc1` [Example 6, 1-(N-Benzylpiperazinyl-propoxyimino)cyclododecane], in data set [1], the selectivity ratio stood at 5. Moreover, the ED50 in data set [2] was determined as 180 mg/kg. Also, the LD50 in data set [3] was 900 mg/kg. For the same compound, the Relative efficiency in data set [4] came out at 0.9; in data set [5], 0.52. In addition, the Duration of effect turned out to be 60 min in data set [5] (0.25% concentration) and 134 min in data set [5] (0.5% concentration).
With `CN1CCN(CCCON=C2CCCCCCCCCCC2)CC1` [Example 7, 1-(N-methylpiperazinyl-propoxyimino)cyclododecane], the selectivity ratio in data set [1] came out at 16.2. This compound showed a 50% effective dose (ED50) in data set [2] of 68 mg/kg. Further, the LD50 in data set [3] was determined as 1100 mg/kg.
As to `CCN(CC)CCCON=C1CCCCCCCCCCC1` [Example 10, 1-(Diethylamino-propoxyimino)cyclododecane], the Relative efficiency in data set [4] came out at 2.9; in data set [5], 2.00. Further, the Duration of effect in data set [5] (0.25% concentration) worked out at 76 min; in data set [5] (0.5% concentration), 104 min.
With `CCN(CC)CC(C)CON=C1CCCCCCCCCCC1` (stereo not shown) [Example 11, 1-(3'-Diethylamino-2'-methyl-propoxyimino)cyclododecane], the selectivity ratio in data set [1] stood at 5. Besides, the ED50 in data set [2] turned out to be 80 mg/kg. The LD50 in data set [3] was found to be 400 mg/kg. The Relative efficiency in data set [4] was 2.6; in data set [5], 1.86. In addition, the Duration of effect stood at 151 min in data set [5] (0.25% concentration) and 240 min in data set [5] (0.5% concentration).
For the compound `CC(C)N(CCCON=C1CCCCCCCCCCC1)C(C)C` [Example 12, 1-(Diisopropylamino-propoxyimino)cyclododecane], the selectivity ratio in data set [1] was 5. Besides, the ED50 in data set [2] is 130 mg/kg. Besides, the LD50 in data set [3] was 650 mg/kg. The values for the Duration of effect in data set [5] (0.25% concentration) and in data set [5] (0.5% concentration) were 77 min and 240 min, respectively. Moreover, in data set [5], the Relative efficiency turned out to be 1.68.
For `CCN(CC)CC(=O)Nc1c(C)cccc1C` [Lidocaine, reference compound], the Duration of effect in data set [5] (0.25% concentration) was 24 min; in data set [5] (0.5% concentration), 28 min. Also, the Relative efficiency in data set [5] was 1.0.
Compound `COc1ccc(Cc2nccc3cc(OC)c(OC)cc23)cc1OC` [Papaverine, reference compound] yielded a Relative efficiency in data set [4] of 1.0.

These data come from patent US4285942A, “Cyclododecanone oximes” (Egyt Gyogyszervegyeszeti Gyar, priority 1978, dated 1981).
